Results: article PMC12077194, “Structural basis for spermidine recognition and modulation of Acinetobacter baumannii multidrug efflux regulator AmvR” (mBio, 2025)

Experiments:
[1] = target: AmvR (a.a. 4-192) from Acinetobacter baumannii, wild type (Acinetobacter baumannii); assay: SEC; Superdex 75 Increase 10/300 GL, buffer F (200 mM NaCl, 20 mM Tris pH 8.0, 5 mM DTT), compared with gel filtration standards; AmvR^WT also with 2x and 10x spermidine
AmvR = target: T1, AmvR (Acinetobacter baumannii, UniProt A0A7U3Y8S7); assay: Isothermal titration calorimetry of polyamines with apo AmvR wild-type; format: binding; conditions: ITC, 20°C, read-out: equilibrium dissociation constant (Kd)
T1 sequence (A0A7U3Y8S7 4-192): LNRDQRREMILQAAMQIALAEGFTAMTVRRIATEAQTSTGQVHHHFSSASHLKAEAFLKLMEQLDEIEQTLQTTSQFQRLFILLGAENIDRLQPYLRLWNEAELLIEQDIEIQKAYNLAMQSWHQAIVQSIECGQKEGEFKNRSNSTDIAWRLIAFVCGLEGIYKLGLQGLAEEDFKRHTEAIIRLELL
Description: (§1) The AmvR^WT or mutant proteins were purified with affinity chromatography followed by size-exclusion chromatography and buffer-exchange with buffer D. The polyamines were also dissolved in Buffer D. The ITC experiments were performed at 20°C using a MicroCal PEAQ-ITC (Malvern Panalytical Ltd) using 20 injections of 2 µL or 25 injections of 1.6 µL. A solution of 100 µM AmvR wild-type or mutants was loaded into the cell, whereas a 1 mM solution of polyamines was loaded into the syringe. The measured heat changes of the binding reactions were integrated and analyzed using the standard “one set of sites” model implemented in the Origin software package (OriginLab) to determine the binding stoichiometry (N-value) and the equilibrium dissociation constant (Kd).

AmvR^E71A = target: T2, AmvR^E71A (Acinetobacter baumannii, UniProt A0A7U3Y8S7, E71A); assay: ITC of polyamines with AmvR^E71A mutant; format: binding
T2 sequence (A0A7U3Y8S7 4-192 E71A): T1 sequence (A0A7U3Y8S7 4-192)
Description: as §1

AmvR L86A = target: T3, AmvR L86A (Acinetobacter baumannii, UniProt A0A7U3Y8S7, L86A); assay: ITC of spermidine with AmvR L86A mutant; format: binding
T3 sequence (A0A7U3Y8S7 4-192 L86A): T1 sequence (A0A7U3Y8S7 4-192)
Description: as §1

AmvR E106A = target: T4, AmvR E106A (Acinetobacter baumannii, UniProt A0A7U3Y8S7, E106A); assay: ITC of spermidine with AmvR E106A mutant; format: binding
T4 sequence (A0A7U3Y8S7 4-192 E106A): T1 sequence (A0A7U3Y8S7 4-192)
Description: as §1

AmvR N103A = target: T5, AmvR N103A (Acinetobacter baumannii, UniProt A0A7U3Y8S7, N103A); assay: ITC of spermidine with AmvR N103A mutant; format: binding
T5 sequence (A0A7U3Y8S7 4-192 N103A): T1 sequence (A0A7U3Y8S7 4-192)
Description: as §1

AmvR^E164A = target: T6, AmvR^E164A (Acinetobacter baumannii, UniProt A0A7U3Y8S7, E164A); assay: ITC of spermidine with AmvR^E164A mutant; format: binding
T6 sequence (A0A7U3Y8S7 4-192 E164A): T1 sequence (A0A7U3Y8S7 4-192)
Description: as §1

AmvR W126E = target: T7, AmvR W126E (Acinetobacter baumannii, UniProt A0A7U3Y8S7, W126E); assay: ITC of spermidine with AmvR W126E mutant; format: binding
T7 sequence (A0A7U3Y8S7 4-192 W126E): T1 sequence (A0A7U3Y8S7 4-192)
Description: as §1

AmvR L99E = target: T8, AmvR L99E (Acinetobacter baumannii, UniProt A0A7U3Y8S7, L99E); assay: ITC of spermidine with AmvR L99E mutant; format: binding
T8 sequence (A0A7U3Y8S7 4-192 L99E): T1 sequence (A0A7U3Y8S7 4-192)
Description: as §1

AmvR^L99Q = target: T9, AmvR^L99Q (Acinetobacter baumannii, UniProt A0A7U3Y8S7, L99Q); assay: ITC of spermidine with AmvR^L99Q mutant; format: binding
T9 sequence (A0A7U3Y8S7 4-192 L99Q): T1 sequence (A0A7U3Y8S7 4-192)
Description: as §1

AmvR W102A = target: T10, AmvR W102A (Acinetobacter baumannii, UniProt A0A7U3Y8S7, W102A); assay: ITC of spermidine with AmvR W102A mutant; format: binding
T10 sequence (A0A7U3Y8S7 4-192 W102A): T1 sequence (A0A7U3Y8S7 4-192)
Description: as §1

AmvR E65A = target: T11, AmvR E65A (Acinetobacter baumannii, UniProt A0A7U3Y8S7, E65A); assay: ITC of spermidine with AmvR E65A mutant; format: binding
T11 sequence (A0A7U3Y8S7 4-192 E65A): T1 sequence (A0A7U3Y8S7 4-192)
Description: as §1

Compound: AmvR (a.a. 4-192) from Acinetobacter baumannii, wild type (natural protein)
- stoichiometry N [1]: 2

Compound: NCCCNCCCCNCCCN [spermine]
- Kd (AmvR): 2.16 µM
- Kd (AmvR^E71A): 88.5 µM

Compound: NCCCCN [putrescine]
- Kd (AmvR): 9.52 µM

Compound: NCCCCNCCCN [spermidine]
- Kd (AmvR): 0.73 µM
- Kd (AmvR L86A): 6.21 µM
- Kd (AmvR E106A): 7.09 µM
- Kd (AmvR^E71A): 40.5 µM
- Kd (AmvR N103A): 1.22 µM
- KD (AmvR^E164A): eliminated spermidine binding
- Kd (AmvR W126E): 7.52 µM
- Kd (AmvR L99E): 5.71 µM
- Kd (AmvR^L99Q): 0.75 µM
- KD (AmvR W102A): completely eliminated spermidine binding
- Kd (AmvR E65A): 0.96 µM

Compound: NCCCCCN [cadaverine]
- Kd (AmvR): 5.88 µM
- Kd (AmvR^E71A): 69.9 µM
